# Test results reported in patent US20240415787A1, “COMPOSITION FOR TREATING OR PREVENTING OBESITY OR OBESITY-ASSOCIATED LIVER DISEASE, COMPRISING VERBENONE DERIVATIVES” (SHIN POONG PHARMACEUTICAL CO., LTD., priority 2021, published 2024).
# Legend:
# [1] = tested on: macrophage infiltration into VAT; test: Flow cytometry of F4/80+CD11b+ macrophages in VAT; format: in vivo, mice; conditions: vs HFD
# Source text: (§1) Male C57BL/6 mice (6 weeks old, 20 g body weight) were purchased from Orient-Bio (Seongnam, Korea). All mice were maintained in a 12-hr light/dark cycle and fed ad libitum. To minimize environmental differences, mice were allowed 2 weeks for acclimation before the start of experiments. For diet-induced NAFLD experiments, mice were fed either an HFD (60% of kcal in fat, D12492, Research Diets, NJ, USA) or a normal chow diet (ND) for 20 weeks. All experimental protocols and procedures were approved by the Ethics Committee and the Institutional Animal Care and Use Committee of Korea University College of Medicine (Approval No. KOREA-2019-0026).
# (§2) The mice were subdivided into vehicle and SP-1154 (50 mg/kg as SP-8356) groups. SP-1154 was administrated to the mice via tab water and the dose of drug was determined by daily water consumption (6 mL/day) and body weights, which were measured every week.
# Cells were suspended in 0.1 mL of fluorescence-activated cell sorting (FACS) buffer (phosphate-buffered saline; PBS with 5% fetal bovine serum; FBS) and incubated with Fc blocker (BD Bioscience, San Jose, CA, USA) at room temperature for 10 min, followed by an additional 30 min with anti-CD45 APC-Cy7, anti-F4/80 PE, and anti-CD11b-PerCP-Cy5.5 (Biolegend, San Diego, CA, USA) antibodies according to the manufacturer's recommendation. […]
# VAT inflammation = test: 18F-FDG PET/CT imaging of VAT metabolic activity (SUVmax); format: in vivo, mice
# Source text: as §1
# The mice were subdivided into vehicle and SP-1154 (50 mg/kg as SP-8356) groups. SP-1154 was administrated to the mice via tab water and the dose of drug was determined by daily water consumption (6 mL/day) and body weights, which were measured every week. […]
# Images were analyzed by two experienced nuclear medicine physicians (KP and HWK) using commercially available software (Syngo. via, Siemens Healthcare, Erlangen, Germany). […] For the evaluation of VAT metabolic activity, region on interest (ROI) was placed along the intra-abdominal fat on each slice and the maximum standardized uptake value (SUVmax) was measured, as previously described. […]
# CD68 = CD68 immunohistochemistry of VAT; format: in vivo, mice; conditions: IHC on harvested VAT; vs HFD
# Source text: as §1, §2
# (§3) Mice were sacrificed after 20 weeks of drug administration by using the CO2 chamber. […] Adipocyte surface area of a minimum of 300 cells per group was measured using ImageJ software (version 1.45 s, Bethesda, MD, USA), as previously described. Hepatic steatosis was assessed using three-scale scoring system based on H&E-stained liver: score 1 (mild, 5-33%); score 2 (moderate, 34-66%); score 3 (severe, >66%). […]
# GLUT4 = GLUT4 expression in VAT (immunostaining, qRT-PCR); format: in vivo, mice; conditions: 20 weeks of HFD, vs HFD
# Source text: as §1, §2
# (§4) Tissues were incubated with anti-CD68 (ab 125212, Abcam, Cambridge, MA, USA), anti-glucose transporter 1 (GLUT1) (ab652, Abcam, Cambridge, MA, USA), and anti-GLUT4 (ab654, Abcam, MA, USA). Alexa Fluor 594 (Invitrogen, Carlsbad, CA, USA) was used as secondary antibody. All fluorescence images were acquired with Zeiss Axio Scan.Z1 (Carl Zeiss, Jena, Germany). […]
# [2] = tested on: HFD-induced liver steatosis; test: Liver weight and liver steatosis score of harvested liver; format: in vivo, mice; conditions: vs HFD
# Source text: as §1, §2, §3
# [3] = Insulin tolerance test (ITT); format: in vivo; conditions: HFD-induced mice; vs HFD
# Source text: as §1, §2
# (§5) For GTT, glucose (2 g/kg body weight) was orally administered to mice after overnight fasting, and blood was drawn to measure glucose concentrations at indicated times thereafter. For ITT, insulin (1.5 insulin units/kg body weight) was intraperitoneally injected into mice after fasting for 4 hours, and blood was drawn to measure blood glucose at indicated times. Insulin concentrations were measured at each indicated time in serum collected from the mice subjected to GTT.
# TGF-β1 = test: qRT-PCR of TGF-β1 mRNA in VAT of HFD-induced mice; format: in vivo; conditions: HFD vs HFD with SP-1154, 20 weeks
# Source text: as §1, §2
# (§6) Total RNA was extracted from VAT samples using the Trizol reagent (Invitrogen, Carlsbad, CA, USA) and the generation of cDNA was performed using the reverse transcription reaction kit (iScript cDNA synthesis kit, Bio-Rad, Hercules, CA, USA). Gene expression was assessed using SYBR Green mixture (iQTM SYBR Green Supermix, Bio-Rad, Hercules, CA, USA) and an iCycler PCR thermocycler (Bio-Rad, Hercules, CA, USA). […]
# [4] = tested on: HFD-induced liver steatosis; test: CT measurement of liver density (Hounsfield units); format: in vivo, mice; conditions: measured in HU, vs HFD
# Source text: as §1, §2
# ^18F-FDG PET/CT was performed using a dedicated small animal PET/CT scanner (eXplore Vista DR PET/CT, GE Healthcare, Milwaukee, WI, USA). Mice were not fasted before taking examination and anesthetized with 2% isoflurane in oxygen (1 L/min) during the examination. PET/CT image acquisition was started 40 min after the injection of 18.5 MBq/0.1 mL of ^18F-FDG via the tail vein. Static PET images were acquired for 20 min, followed by CT scan (40 kV, 250 uA). […]
# C-reactive protein (CRP) = test: ELISA of serum C-reactive protein; format: in vivo, mice
# Source text: as §1, §2
# Serum concentration of C-reactive protein (CRP) was determined using a commercially available ELISA kit (ab157712, Abcam, Cambridge, MA, USA) according to the manufacturer's instruction.
# [5] = Solubility in saline / water; format: physicochemical
# GLUT1 = GLUT1 expression in VAT (immunostaining, qRT-PCR); format: in vivo, mice; conditions: 20 weeks of HFD, vs HFD
# Source text: as §1, §2, §4
# [6] = tested on: phosphorylation of Smad2/3; test: Western blot of Smad2/3 phosphorylation in VAT of HFD-induced mice; format: in vivo; conditions: 50 mg/kg as SP-8356 via water, 20 weeks, vs HFD
# Source text: as §1, §2
# VAT was lysed in RIPA buffer (Thermo Fisher Scientific, Waltham, MA, USA) with protease inhibitor (GeneDepot, Barker, TX, USA). The protein concentration was quantified using the BCA protein assay kit (Thermo Fisher Scientific, Waltham, MA, USA). […] Protein bands were detected using the ECL assay kit (GE Healthcare, Chicago, IL, USA).
# [7] = Glucose tolerance test (GTT); format: in vivo; conditions: HFD-induced mice; vs HFD
# Source text: as §1, §2, §5
# [8] = Blood analysis (serum AST, ALT, total cholesterol); format: in vivo, mice
# Source text: as §1, §2
# Blood samples were collected immediately before sacrifice. The levels of AST (aspartate aminotransferase), ALT (alanine aminotransferase), total cholesterol, and triglyceride in serum were measured using a FUJI DRI-Chemiclinical Chemistry Analyzer (FUJI DRI-CHEM 4000i, Fuji Film, Tokyo, Japan).
# TGF-βR1 = test: qRT-PCR of TGF-βR1 mRNA in VAT of HFD-induced mice; format: in vivo; conditions: HFD vs HFD with SP-1154, 20 weeks
# Source text: as §1, §2, §6
# [9] = Body weight and food intake during 20-week HFD study; format: in vivo; conditions: HFD-induced mice, 50 mg/kg as SP-8356, 20 weeks; vs HFD
# Source text: as §1, §2
# adipocytes in VAT = test: Histopathology of VAT: adipocyte surface area; format: in vivo, mice; conditions: 20 weeks of HFD, vs HFD
# Source text: as §1, §2, §3
# [10] = Conversion of prodrug to SP-8356
# [11] = Efficacy of suspension versus soluble prodrug form; conditions: suspension in saline
# [12] = normal mice vs SP-1154-treated mice
structure (smiles),measurement,setting,value
"COc1cc(/C=C/C2=CC(=O)[C@H]3C[C@@H]2C3(C)C)cc(OC(=O)[C@@H](N)C(C)C)c1OC(=O)[C@@H](N)C(C)C.Cl.Cl [SP-1154, (2S,2'S)-5-((E)-2-((1R,5S)-6,6-dimethyl-4-oxobicyclo[3.1.1]hept-2-en-2-yl)vinyl)-3-methoxy-1,2-phenylene bis(2-amino-3-methylbutanoate)-dihydrochloride]",macrophage infiltration into VAT,[1],significantly prevented
same,VAT SUVmax,"VAT inflammation; 18F-FDG PET/CT after 20 weeks of HFD, vs HFD",significantly reduced
same,"VAT SUVmax, difference to normal mice",VAT inflammation; [12],no significant difference
same,expression of CD68 in VAT,CD68,suppressed
same,GLUT4 expression,GLUT4,increased
same,liver steatosis score,"[2]; H&E-stained liver, three-scale scoring",significantly reduced
same,liver weight,[2]; harvested liver,significantly reduced
same,insulin resistance (ITT),[3],significantly improved
same,mRNA expression level of TGF-β1 in VAT,TGF-β1,no significant difference
same,liver density,[4],significantly enhanced
same,"CRP levels, difference to normal mice",C-reactive protein (CRP); [12],no significant difference
same,levels of CRP,"C-reactive protein (CRP); serum, HFD-induced mice, vs HFD",significantly suppressed
same,water solubility,[5]; water,high
same,GLUT1 expression,GLUT1,decreased
same,phosphorylation of Smad2/3 in VAT,[6],inhibited
same,glucose homeostasis (GTT),[7],significantly improved
same,serum total cholesterol,[8]; HFD vs HFD with SP-1154,no significant difference
same,level of ALT,"[8]; serum, HFD-induced mice",improved
same,level of AST,"[8]; serum, HFD-induced mice",improved
same,mRNA expression level of TGF-βR1 in VAT,TGF-βR1,no significant difference
same,HFD-induced body weight gain,[9],significantly attenuated
same,adipocyte size,adipocytes in VAT,significant reduction
same,conversion of prodrug to SP-8356,[10],converted to SP-8356 very quickly
"COc1cc(C=CC2=CC(=O)[C@H]3C[C@@H]2C3(C)C)cc(O)c1O [SP-8356, (1S,5R)-4-(3,4-dihydroxy-5-methoxystyryl)-6,6-dimethylbicyclo[3.1.1]hept-3-en-2-one]",efficacy when used as a suspension,[11],weak but significant
same,solubility in saline,[5]; saline,does not dissolve well in saline
